Source: patent US9145405B2, “Oxadiazole compound and preparation method thereof, pharmaceutical composition and use thereof” (SHANGHAI JIAO TONG UNIVERSITY, priority 2011, dated 2015)
In brackets after ≈: the same amount, converted by molar mass. Like-named read-outs stand apart in the source and are kept apart here.

Columns and labels:
Vero cells = assay: Toxicity (half toxic concentration) in the anti-Cox_B3 test on Vero cells; assay type: cell-based
Cox_B3 virus = assay: Anti-Cox_B3 test: inhibition of cytopathic effect (CPE) in infected Vero cells, Reed-Muench; assay type: cell-based; details: for IC50: read-out: IC50 (half-inhibitory concentration for viruses)
Excerpt: The present examples verifies experimental results of anti-Cox_B3 of the compounds 1-137of the present invention, Pleconaril, 3-[3,5-dimethyl-4-[5-(3-methy-1,2-oxazolyl)propoxy]phenyl]-5-(trifluonomethyl) -1,2,4-oxadiazole is used as positive control.

[1] = Cox_B3 virus in Vero cells, CPE, Reed-Muench method

| Molecule | TC50 (half of the toxic concentration) (Vero cells) | IC50 (half-inhibitory concentration for viruses) (Cox_B3 virus; [1]) | TC50 (half of the toxic concentration) (Vero cells; Vero cells, Cox_B3) | IC50 (Cox_B3 virus; [1]) | IC50 (Cox_B3 virus; Vero) |
| --- | --- | --- | --- | --- | --- |
| 3-[2,6-dimethyl-4-[(5-(trifluoromethyl)-1,2,4-oxadiazole-3-yl)phenoxyl]ethoxyl]-6-methylpyridazine [Compound 56] | 22.22 µg/mL | 0.20 µg/mL |  |  |  |
| Cc1cc(-c2noc(C(F)(F)F)n2)cc(C)c1OCCCOc1cnc(-c2noc(C(F)(F)F)n2)cn1 [Compound 135, 2-[5-(trifluoromethyl)-1,2,4-oxadiazole-3-yl]-5-[3-[2,6-dimethyl-4-[5-(trifluoromethyl)-1,2,4-oxadiazole-3-yl]phenoxyl]propoxy]pyrazine] |  |  | 42.18 µg/mL | 0.038 µg/mL (≈ 0.0716 µM) |  |
| Cc1cc(-c2noc(C(F)(F)F)n2)cc(C)c1OCCOc1ccc([N+](=O)[O-])cc1F [Compound 41, 3-[3,5-dimethyl-4-[(2-fluoro-4-nitrophenoxyl)ethoxyl]phenyl]-5-(trifluoromethyl)-1,2,4-oxadiazole] |  |  | 46.89 µg/mL | 0.033 µg/mL (≈ 0.0748 µM) |  |
| Cc1cc(-c2noc(C(F)(F)F)n2)cc(C)c1OCCCOc1ncc(-c2noc(C(F)(F)F)n2)cn1 [Compound 136, 2-[3-[2,6-dimethyl-4-[5-(trifluoromethyl)-1,2,4-oxadiazole-3-yl]phenoxyl]propoxy]-5-[5-(trifluoromethyl)-1,2,4-oxadiazole-3-yl]-pyrimidine] |  |  | 41.23 µg/mL | 0.04 µg/mL (≈ 0.0754 µM) |  |
| Cc1cc(OCCOc2c(C)cc(-c3noc(C)n3)cc2C)no1 [Compound 2, 3-[3,5-dimethyl-4-[2-(5-methylisoxazole-3-oxy)ethoxyl]phenyl]-5-methyl-1,2,4-oxadiazole] |  |  | 58.78 µg/mL | 0.091 µg/mL (≈ 0.276 µM) |  |
| 3-[2,6-dimethyl-4-[(5-(trifluoromethyl)-1,2,4-oxadiazole-3-yl)phenoxyl]ethoxyl]-6-methylpyridazine [Compound 110] | 36.89 µg/mL | 0.28 µg/mL |  |  |  |
| Cc1nc(-c2cnc(OCCCOc3c(C)cc(-c4noc(C(F)(F)F)n4)cc3C)c(F)c2)no1 [Compound 121, 2-[3-[2,6-dimethyl-4-[5-(trifluoromethyl)-1,2,4-oxadiazole-3-yl]phenoxyl]propoxy]-3-fluoro-5-(5-methyl-1,2,4-oxadiazole-3-yl)-pyridine] |  |  | 36.17 µg/mL | 0.039 µg/mL (≈ 0.079 µM) |  |
| 3-[3,5-dimethyl-4-[2-(3-methyl-1,2,4-thiadiazole-5-thio)ethoxyl]phenyl]-5-(trifluoromethyl)-1,2,4-oxadiazole [Compound 23] | 39.78 µg/mL | 0.12 µg/mL |  |  |  |
| Cc1nc(-c2ccc(OCCOc3c(C)cc(-c4noc(C(F)(F)F)n4)cc3C)nc2)no1 [Compound 113, 2-[2-[2,6-dimethyl-4-[5-(trifluoromethyl)-1,2,4-oxadiazole-3-yl]phenoxyl]ethoxyl]-5-(5-methyl-1,2,4-oxadiazole-3-yl)-pyridine] |  |  | 35.22 µg/mL | 0.036 µg/mL (≈ 0.078 µM) |  |
| 6-[2,6-dimethyl-4-[(5-(trifluoromethyl)-1,2,4-oxadiazole-3-yl)phenoxyl]ethoxyl]-5-fluoro-3-cyanopyridine [Compound 46] | 38.58 µg/mL | 0.088 µg/mL |  |  |  |
| Cc1cc(-c2noc(C(F)(F)F)n2)cc(C)c1OCCCOc1ccc(-c2noc(C(F)(F)F)n2)cc1F [Compound 124] | 32.58 µg/mL | 0.037 µg/mL |  |  |  |
| 6-[2,6-dimethyl-4-[(5-(trifluoromethyl)-1,2,4-oxadiazole-3-yl)phenoxyl]ethoxyl]-5-trifluoromethylpyridine [Compound 52] | 41.28 µg/mL | 0.13 µg/mL |  |  |  |
| Cc1cc(-c2noc(C(F)(F)F)n2)cc(C)c1OCCCOc1ccc([N+](=O)[O-])cn1 [Compound 134, 2-[3-[2,6-dimethyl-4-[5-(trifluoromethyl)-1,2,4-oxadiazole-3-yl]phenoxyl]propoxy]-5-nitropyridine] |  |  | 40.25 µg/mL | 0.045 µg/mL (≈ 0.103 µM) |  |
| Cc1cc(-c2noc(C(F)(F)F)n2)cc(C)c1OCCCOc1ncc(-c2noc(C(F)(F)F)n2)cc1F [Compound 122, 2-[3-[2,6-dimethyl-4-[5-(trifluoromethyl)-1,2,4-oxadiazole-3-yl]phenoxyl]propoxy]-3-fluoro-5-[5-(trifluoromethyl)-1,2,4-oxadiazole-3-yl]-pyridine] |  |  | 34.87 µg/mL | 0.041 µg/mL (≈ 0.0749 µM) |  |
| Cc1cc(CCCOc2c(C)cc(-c3noc(C(F)(F)F)n3)cc2C)on1 [Pleconaril, 3-[3,5-dimethyl-4-[5-(3-methy-1,2-oxazolyl)propoxy]phenyl]-5-(trifluonomethyl) -1,2,4-oxadiazole, reference compound] |  |  | 17.25 µg/mL |  | 0.04 µg/mL (≈ 0.105 µM) |
| Cc1cc(-c2noc(C(F)(F)F)n2)cc(C)c1OCCOc1ccc(Cl)cc1Cl [Compound 43, 3-[3,5-dimethyl-4-[(2,4-dichlorophenoxyl)ethoxyl]phenyl]-5-(trifluoromethyl)-1,2,4-oxadiazole] |  |  | 35.66 µg/mL | 0.044 µg/mL (≈ 0.0984 µM) |  |
| 3-[2-(2,6-dimethyl-4-[(5-(trifluoromethyl)-1,2,4-oxadiazole-3-yl)phenoxyl]ethoxyl]-2-formamide-6-fluoropyrazine [Compound 55] |  | 0.16 µg/mL | 36.66 µg/mL |  |  |
| 3-[2-(2,6-dimethyl-4-[(5-(trifluoromethyl)-1,2,4-oxadiazole-3-yl)phenoxyl]ethoxyl]-2-formamide-6-fluoropyrazine [Compound 109] |  | 0.13 µg/mL | 48.21 µg/mL |  |  |
| 6-[2,6-dimethyl-4-[(5-(trifluoromethyl)-1,2,4-oxadiazole-3-yl)phenoxyl]ethoxyl]-3-cyanopyridine [Compound 50] | 36.88 µg/mL | 0.087 µg/mL |  |  |  |
| Cc1cc(-c2noc(C(F)(F)F)n2)cc(C)c1OCCCOc1ccc(C#N)nn1 [Compound 133, 3-cyano-6-[3-[2,6-dimethyl-4-[5-(trifluoromethyl)-1,2,4-oxadiazole-3-yl]phenoxyl]propoxy]pyridazine] |  |  | 38.78 µg/mL | 0.041 µg/mL (≈ 0.0978 µM) |  |
| CCON=Cc1ccc(OCCOc2c(C)cc(-c3noc(C(F)(F)F)n3)cc2C)cn1 [Compound 44, 6-[2,6-dimethyl-4-[(5-(trifluoromethyl)-1,2,4-oxadiazole-3-yl)phenoxyl]ethoxyl]pyridine-2-oxy-ethylketoxime] | 34.35 µg/mL | 0.078 µg/mL |  |  |  |
| Cc1c[nH]c(OCCOc2c(C)cc(-c3noc(C(F)(F)F)n3)cc2C)n1 [Compound 12, 3-[3,5-dimethyl-4-[2-(4-methylimidazole-2-oxy)ethoxyl]phenyl]-5-(trifluoromethyl)-1,2,4-oxadiazole] |  |  | 40.27 µg/mL | 0.12 µg/mL (≈ 0.314 µM) |  |
| Cc1cc(-c2noc(C(F)(F)F)n2)cc(C)c1OCCOc1nccc(C(F)(F)F)n1 [Compound 33, 2-[2-[2,6-dimethyl-4-[5-(trifluoromethyl)-1,2,4-oxadiazole-3-yl]phenoxyl]ethoxyl]-4-(trifluoromethyl) pyrimidine] |  |  | 35.28 µg/mL | 0.12 µg/mL (≈ 0.268 µM) |  |
